Where “and” joins values, the source holds several entries; their conditions need not be identical. Equal values may be shown once. Read-outs that look alike come from different tables or passages of the source.
Columns and labels:
Leishmania major lesions = test: In vivo testing in BALB/c mice, Leishmania footpad lesion; details: for Lesion Size (mm) Post-Rx: daily for one week, 9 days after commencement; for Lesion Size (mm) Pre-Rx: prior to dosing
Method: One foot pad was infected with infective Leishmania promastigotes while the other foot served as control. After the infected foot pads had developed lesions, mice with similar size lesions were selected and treated daily with test article for one week. The first doses were administered on 18 May. Lesions were measured with calipers prior to dosing and 9 days after commencement of treatment (27 May) and the difference in lesion size calculated. The thickness of the uninfected footpad was also measured. […] Test articles were administered orally and intra-peritoneally (ip).

[1] = system: Leishmania major ATCC 50122 amastigotes; test: In vitro amastigote/macrophage culture drug screening; format: cell-based; details: for effectiveness ranking of the compounds in the screen: 2.0 μM initial screen
Method: Preliminary drug screening (in vitro amastigote/macrophage culture) of artemisinin and artelinic acid compounds.
The four compounds were dissolved in the respective solvents as indicated in the table below (Table 1) and were tested against Leishmania major ATCC 50122 amastigotes in vitro in a mouse macrophage system. A positive (Pentostam) and negative (culture medium) controls were set for each plate. Compounds were tested at 2.0 μM in a total volume of 2-0 mls. Drug was added to well every 4 hours×1, 2 and 3, and results shown in (Table 2) below.
Because of the high potency of Artelinic acid relative to the other compounds, the experiments were repeated with different doses of Artelinic acid alone.

[2] = system: Leishmania major ATCC 50122 amastigotes; test: as above; format: cell-based; details: added once
[3] = system: Trypanosoma brucei brucei; test: In vitro trypanocidal assay (microscopic viability, bloodstream forms); format: cell-based; details: 1 μg/mL, 24-hr incubation, read-out: growth inhibition against T. b. brucei
Method: Culture suspension of Trypanosoma brucei brucei (T. b. brucei) was obtained from Research Institute for Microbial Diseases (Osaka University, Japan). Trypanosomes were subcultured in appropriate medium (see 5.1.2) as frequently as needed to avoid overgrowth, and maintained in culture flasks at 37° C. in a humidified, 5% CO2 atmosphere incubator. In addition, parasite culture stabilates were prepared by suspending trypanosomes centrifugation (1500 rpm, room temperature, 3 min) pellet in 1 mL of a mixture of […] (v/v) trypanosome dilution buffer and 33% (v/v) glycerol. The whole volume was transferred into cryotubes and stored at −80° C. until further needed. […]
All fractions obtained stepwise in the course of the separation process of the plant crude extracts were assessed for their in vitro activity against T. b. brucei. […] Trypanosomes were harvested at late exponential growth level, counted with a hemocytometer (Erma Tokyo 7059), and resuspended by appropriate dilution in culture medium for achieving a final density of 1×10^4 cells/mL. […] After successively 24, 48, and 72 hr-incubations, parasites viability was determined by observing directly inside the wells of the microculture plate with an optical microscope (Injectoscope model IMT-YF/Olympus). […]

HeLa S3 cells = test: Cytotoxicity assay in vitro (MTT); format: cell-based, human; details: 1 μg/mL
Method: An axenic culture of human carcinoma HeLa S3 cell line was established in Dulbecco's Modified Eagle's Medium (D-MEM, Sigma) supplemented with 4500 mg glucose/L, L-glutamine, NaHCO3, and pyridoxine HCl, to which 10% heat-inactivated (56° C., 40 min) fetal bovine serum (FBS, MultiSer) was added. Plant chromatographic fractions, which have shown potent trypanocidal activity in vitro, were selected for cytotoxicity assay. Previously dissolved in neat DMSO (Wako-for biochemical assay), an aliquot of 10 μL of each test sample was diluted in 490 μL of the cell culture medium with the intent of decreasing the DMSO concentration to 2% in the medium. HeLa S3 cells maintained in culture dish (Sumilon) were washed with Dulbecco's phosphate saline buffer (-) [DPBS (-), Nissui Pharmaceutical Co., Ltd] after syphonating the culture medium. Adherent cells were released from their dish bottom substrate by adding trypsin (Nacalai) and gently tapping with hand on the round lateral side of the dish. […] After shaking ([…]) for 3-5 min, the absorbance in each well was measured at 540 nm in a microtiter plate reader (ImmunoMini NJ-2300). The percentage of cytotoxicity (growth inhibition level) was calculated as (A-B)/A×100, where A is the mean optical density of negative control wells and B is the mean optical density of test sample wells.

[4] = cited from earlier work

C[C@H]1[C@@H](OCc2ccc(C(=O)O)cc2)O[C@@H]2O[C@@]3(C)CC[C@H]4[C@H](C)CC[C@@H]1[C@@]24OO3 [Artelinic acid, artelinic acid]
Lesion Size (mm) Post-Rx (Leishmania major lesions; 4 ul/Kg, IP): 2.1 mm and 2.2 mm and 2.0 mm | Lesion Size (mm) Pre-Rx (Leishmania major lesions; 4 ul/Kg, IP): 2.6 mm and 2.5 mm | Lesion Size (mm) Pre-Rx (Leishmania major lesions; 4 ul/Kg, Oral): 2.7 mm and 2.8 mm | effectiveness compared with Pentostam, the positive control (Leishmania major lesions; at the doses and route of administration tested): much more effective than Pentostam | effect on size of Leishmania major footpad lesions (Leishmania major lesions; given orally or ip for one week): decrease in the size of Leishmania major lesions | killing of / potency against Leishmania parasites within mouse macrophages in vitro [1]: marked potency | effectiveness ranking of the compounds in the screen [1]: Artelinic acid>>>Dihydroartemisinin>Beta Arteether>>Artemisinin | observation on Leishmania amastigotes ([1]; 2.0 μM, added once): All the leishmania amastigotes were cleared | clearance of amastigotes in macrophages ([1]; 2 uM, initial screen): cleared all of the amastigates in macrophages | lowest concentration at which killing of intracellular amastigotes was noted ([1]; dose response, added once): 0.1 µM | lowest dose at which clearance was complete ([1]; dose response, added once): 0.25 µM | observation on Leishmania amastigotes ([2]; 0.25 μM): Cleared all the Leishmania amastigotes | observation on Leishmania amastigotes ([2]; 0.5 μM): Cleared all the parasites in the cytoplasm | observation on Leishmania amastigotes ([2]; 1.0 μM): All the amastigotes were cleared from the macrophages

C[C@@H]1CC[C@H]2[C@@H](C)C(=O)O[C@@H]3O[C@@]4(C)CC[C@@H]1[C@]32OO4 [Artemisinin, (+)-artemisinin]
inhibition at 1 µg/mL [3]: ≥ 80% | cytotoxic level in vitro (HeLa S3 cells): 17.3% | killing of / potency against Leishmania parasites within mouse macrophages in vitro [1]: results were duplicated | effectiveness ranking of the compounds in the screen [1]: Artelinic acid>>>Dihydroartemisinin>Beta Arteether>>Artemisinin | parasites per macrophage ([1]; 2.0 μM, compound added q4 h × 1): between 4-7

CCO[C@H]1O[C@@H]2O[C@@]3(C)CC[C@H]4[C@H](C)CC[C@@H]([C@H]1C)[C@@]24OO3 [Beta Arteether, Beta-Arteether]
effectiveness ranking of the compounds in the screen [1]: Artelinic acid>>>Dihydroartemisinin>Beta Arteether>>Artemisinin

Nc1nc(N)nc(Nc2ccc([As]3SCC(CO)S3)cc2)n1 (stereo not drawn) [Melarsoprol]
oral bioavailability ([4]; po): no oral bioavailability

N=C(N)c1ccc(OCCCCCOc2ccc(C(=N)N)cc2)cc1 [Pentamidine]
oral bioavailability [4]: no oral bioavailability

O.O.O.O.O.O.O.O.O.O=C([O-])[C@@H]1[O][Sb](=[O])([O][Sb]2(=[O])[O][C@H]([C@H](O)CO)[C@H](O)[C@H](C(=O)[O-])[O]2)[O][C@H]([C@H](O)CO)[C@@H]1O.[Na+].[Na+].[Na+] (stereo partly drawn) [Pentostam]
Lesion Size (mm) Post-Rx (Leishmania major lesions; 20 mg/Kg, IP): 2.3 mm and 3.0 mm and 2.7 mm | Lesion Size (mm) Pre-Rx (Leishmania major lesions; 20 mg/Kg, IP): 2.8 mm and 2.6 mm | Lesion Size (mm) Post-Rx (Leishmania major lesions; 20 mg/Kg, Oral): 2.6 mm and 2.9 mm | Lesion Size (mm) Pre-Rx (Leishmania major lesions; 20 mg/Kg, Oral): 2.8 mm and 2.7 mm

Cc1ccc(C(=O)Nc2ccc(S(=O)(=O)O)c3cc(S(=O)(=O)O)cc(S(=O)(=O)O)c23)cc1NC(=O)c1cccc(NC(=O)Nc2cccc(C(=O)Nc3cc(C(=O)Nc4ccc(S(=O)(=O)O)c5cc(S(=O)(=O)O)cc(S(=O)(=O)O)c45)ccc3C)c2)c1 [Suramin]
oral bioavailability [4]: no oral bioavailability

Source: US8715751B2, “Artemisinins in the clinical and veterinary management of kinetoplastid infections” (The United States of America as Represented by the …, priority 2006, dated 2014)
